Experimental data published in article PMC12700559, “Structural basis for simvastatin-induced skeletal muscle weakness associated with type 1 ryanodine receptor T4709M mutation” (The Journal of Clinical Investigation, 2025).

Tests used:
[1] = molecular target: T1, type 1 ryanodine receptor (RyR1) (Mus musculus, UniProt E9PZQ0); experiment: [3H]simvastatin radioligand binding; single-channel recordings show activation
T1 construct: recombinant WT RyR1 on HEK293 ER microsomes (also endogenous RyR1 from mouse skeletal muscle)

RyR1 BSM1 mutant = molecular target: T2, RyR1 BSM1 mutant (Mus musculus, UniProt E9PZQ0, W4792A); experiment: [3H]simvastatin radioligand binding
T2 construct: recombinant RyR1 on HEK293 ER microsomes
T2 sequence (E9PZQ0 whole entry W4792A): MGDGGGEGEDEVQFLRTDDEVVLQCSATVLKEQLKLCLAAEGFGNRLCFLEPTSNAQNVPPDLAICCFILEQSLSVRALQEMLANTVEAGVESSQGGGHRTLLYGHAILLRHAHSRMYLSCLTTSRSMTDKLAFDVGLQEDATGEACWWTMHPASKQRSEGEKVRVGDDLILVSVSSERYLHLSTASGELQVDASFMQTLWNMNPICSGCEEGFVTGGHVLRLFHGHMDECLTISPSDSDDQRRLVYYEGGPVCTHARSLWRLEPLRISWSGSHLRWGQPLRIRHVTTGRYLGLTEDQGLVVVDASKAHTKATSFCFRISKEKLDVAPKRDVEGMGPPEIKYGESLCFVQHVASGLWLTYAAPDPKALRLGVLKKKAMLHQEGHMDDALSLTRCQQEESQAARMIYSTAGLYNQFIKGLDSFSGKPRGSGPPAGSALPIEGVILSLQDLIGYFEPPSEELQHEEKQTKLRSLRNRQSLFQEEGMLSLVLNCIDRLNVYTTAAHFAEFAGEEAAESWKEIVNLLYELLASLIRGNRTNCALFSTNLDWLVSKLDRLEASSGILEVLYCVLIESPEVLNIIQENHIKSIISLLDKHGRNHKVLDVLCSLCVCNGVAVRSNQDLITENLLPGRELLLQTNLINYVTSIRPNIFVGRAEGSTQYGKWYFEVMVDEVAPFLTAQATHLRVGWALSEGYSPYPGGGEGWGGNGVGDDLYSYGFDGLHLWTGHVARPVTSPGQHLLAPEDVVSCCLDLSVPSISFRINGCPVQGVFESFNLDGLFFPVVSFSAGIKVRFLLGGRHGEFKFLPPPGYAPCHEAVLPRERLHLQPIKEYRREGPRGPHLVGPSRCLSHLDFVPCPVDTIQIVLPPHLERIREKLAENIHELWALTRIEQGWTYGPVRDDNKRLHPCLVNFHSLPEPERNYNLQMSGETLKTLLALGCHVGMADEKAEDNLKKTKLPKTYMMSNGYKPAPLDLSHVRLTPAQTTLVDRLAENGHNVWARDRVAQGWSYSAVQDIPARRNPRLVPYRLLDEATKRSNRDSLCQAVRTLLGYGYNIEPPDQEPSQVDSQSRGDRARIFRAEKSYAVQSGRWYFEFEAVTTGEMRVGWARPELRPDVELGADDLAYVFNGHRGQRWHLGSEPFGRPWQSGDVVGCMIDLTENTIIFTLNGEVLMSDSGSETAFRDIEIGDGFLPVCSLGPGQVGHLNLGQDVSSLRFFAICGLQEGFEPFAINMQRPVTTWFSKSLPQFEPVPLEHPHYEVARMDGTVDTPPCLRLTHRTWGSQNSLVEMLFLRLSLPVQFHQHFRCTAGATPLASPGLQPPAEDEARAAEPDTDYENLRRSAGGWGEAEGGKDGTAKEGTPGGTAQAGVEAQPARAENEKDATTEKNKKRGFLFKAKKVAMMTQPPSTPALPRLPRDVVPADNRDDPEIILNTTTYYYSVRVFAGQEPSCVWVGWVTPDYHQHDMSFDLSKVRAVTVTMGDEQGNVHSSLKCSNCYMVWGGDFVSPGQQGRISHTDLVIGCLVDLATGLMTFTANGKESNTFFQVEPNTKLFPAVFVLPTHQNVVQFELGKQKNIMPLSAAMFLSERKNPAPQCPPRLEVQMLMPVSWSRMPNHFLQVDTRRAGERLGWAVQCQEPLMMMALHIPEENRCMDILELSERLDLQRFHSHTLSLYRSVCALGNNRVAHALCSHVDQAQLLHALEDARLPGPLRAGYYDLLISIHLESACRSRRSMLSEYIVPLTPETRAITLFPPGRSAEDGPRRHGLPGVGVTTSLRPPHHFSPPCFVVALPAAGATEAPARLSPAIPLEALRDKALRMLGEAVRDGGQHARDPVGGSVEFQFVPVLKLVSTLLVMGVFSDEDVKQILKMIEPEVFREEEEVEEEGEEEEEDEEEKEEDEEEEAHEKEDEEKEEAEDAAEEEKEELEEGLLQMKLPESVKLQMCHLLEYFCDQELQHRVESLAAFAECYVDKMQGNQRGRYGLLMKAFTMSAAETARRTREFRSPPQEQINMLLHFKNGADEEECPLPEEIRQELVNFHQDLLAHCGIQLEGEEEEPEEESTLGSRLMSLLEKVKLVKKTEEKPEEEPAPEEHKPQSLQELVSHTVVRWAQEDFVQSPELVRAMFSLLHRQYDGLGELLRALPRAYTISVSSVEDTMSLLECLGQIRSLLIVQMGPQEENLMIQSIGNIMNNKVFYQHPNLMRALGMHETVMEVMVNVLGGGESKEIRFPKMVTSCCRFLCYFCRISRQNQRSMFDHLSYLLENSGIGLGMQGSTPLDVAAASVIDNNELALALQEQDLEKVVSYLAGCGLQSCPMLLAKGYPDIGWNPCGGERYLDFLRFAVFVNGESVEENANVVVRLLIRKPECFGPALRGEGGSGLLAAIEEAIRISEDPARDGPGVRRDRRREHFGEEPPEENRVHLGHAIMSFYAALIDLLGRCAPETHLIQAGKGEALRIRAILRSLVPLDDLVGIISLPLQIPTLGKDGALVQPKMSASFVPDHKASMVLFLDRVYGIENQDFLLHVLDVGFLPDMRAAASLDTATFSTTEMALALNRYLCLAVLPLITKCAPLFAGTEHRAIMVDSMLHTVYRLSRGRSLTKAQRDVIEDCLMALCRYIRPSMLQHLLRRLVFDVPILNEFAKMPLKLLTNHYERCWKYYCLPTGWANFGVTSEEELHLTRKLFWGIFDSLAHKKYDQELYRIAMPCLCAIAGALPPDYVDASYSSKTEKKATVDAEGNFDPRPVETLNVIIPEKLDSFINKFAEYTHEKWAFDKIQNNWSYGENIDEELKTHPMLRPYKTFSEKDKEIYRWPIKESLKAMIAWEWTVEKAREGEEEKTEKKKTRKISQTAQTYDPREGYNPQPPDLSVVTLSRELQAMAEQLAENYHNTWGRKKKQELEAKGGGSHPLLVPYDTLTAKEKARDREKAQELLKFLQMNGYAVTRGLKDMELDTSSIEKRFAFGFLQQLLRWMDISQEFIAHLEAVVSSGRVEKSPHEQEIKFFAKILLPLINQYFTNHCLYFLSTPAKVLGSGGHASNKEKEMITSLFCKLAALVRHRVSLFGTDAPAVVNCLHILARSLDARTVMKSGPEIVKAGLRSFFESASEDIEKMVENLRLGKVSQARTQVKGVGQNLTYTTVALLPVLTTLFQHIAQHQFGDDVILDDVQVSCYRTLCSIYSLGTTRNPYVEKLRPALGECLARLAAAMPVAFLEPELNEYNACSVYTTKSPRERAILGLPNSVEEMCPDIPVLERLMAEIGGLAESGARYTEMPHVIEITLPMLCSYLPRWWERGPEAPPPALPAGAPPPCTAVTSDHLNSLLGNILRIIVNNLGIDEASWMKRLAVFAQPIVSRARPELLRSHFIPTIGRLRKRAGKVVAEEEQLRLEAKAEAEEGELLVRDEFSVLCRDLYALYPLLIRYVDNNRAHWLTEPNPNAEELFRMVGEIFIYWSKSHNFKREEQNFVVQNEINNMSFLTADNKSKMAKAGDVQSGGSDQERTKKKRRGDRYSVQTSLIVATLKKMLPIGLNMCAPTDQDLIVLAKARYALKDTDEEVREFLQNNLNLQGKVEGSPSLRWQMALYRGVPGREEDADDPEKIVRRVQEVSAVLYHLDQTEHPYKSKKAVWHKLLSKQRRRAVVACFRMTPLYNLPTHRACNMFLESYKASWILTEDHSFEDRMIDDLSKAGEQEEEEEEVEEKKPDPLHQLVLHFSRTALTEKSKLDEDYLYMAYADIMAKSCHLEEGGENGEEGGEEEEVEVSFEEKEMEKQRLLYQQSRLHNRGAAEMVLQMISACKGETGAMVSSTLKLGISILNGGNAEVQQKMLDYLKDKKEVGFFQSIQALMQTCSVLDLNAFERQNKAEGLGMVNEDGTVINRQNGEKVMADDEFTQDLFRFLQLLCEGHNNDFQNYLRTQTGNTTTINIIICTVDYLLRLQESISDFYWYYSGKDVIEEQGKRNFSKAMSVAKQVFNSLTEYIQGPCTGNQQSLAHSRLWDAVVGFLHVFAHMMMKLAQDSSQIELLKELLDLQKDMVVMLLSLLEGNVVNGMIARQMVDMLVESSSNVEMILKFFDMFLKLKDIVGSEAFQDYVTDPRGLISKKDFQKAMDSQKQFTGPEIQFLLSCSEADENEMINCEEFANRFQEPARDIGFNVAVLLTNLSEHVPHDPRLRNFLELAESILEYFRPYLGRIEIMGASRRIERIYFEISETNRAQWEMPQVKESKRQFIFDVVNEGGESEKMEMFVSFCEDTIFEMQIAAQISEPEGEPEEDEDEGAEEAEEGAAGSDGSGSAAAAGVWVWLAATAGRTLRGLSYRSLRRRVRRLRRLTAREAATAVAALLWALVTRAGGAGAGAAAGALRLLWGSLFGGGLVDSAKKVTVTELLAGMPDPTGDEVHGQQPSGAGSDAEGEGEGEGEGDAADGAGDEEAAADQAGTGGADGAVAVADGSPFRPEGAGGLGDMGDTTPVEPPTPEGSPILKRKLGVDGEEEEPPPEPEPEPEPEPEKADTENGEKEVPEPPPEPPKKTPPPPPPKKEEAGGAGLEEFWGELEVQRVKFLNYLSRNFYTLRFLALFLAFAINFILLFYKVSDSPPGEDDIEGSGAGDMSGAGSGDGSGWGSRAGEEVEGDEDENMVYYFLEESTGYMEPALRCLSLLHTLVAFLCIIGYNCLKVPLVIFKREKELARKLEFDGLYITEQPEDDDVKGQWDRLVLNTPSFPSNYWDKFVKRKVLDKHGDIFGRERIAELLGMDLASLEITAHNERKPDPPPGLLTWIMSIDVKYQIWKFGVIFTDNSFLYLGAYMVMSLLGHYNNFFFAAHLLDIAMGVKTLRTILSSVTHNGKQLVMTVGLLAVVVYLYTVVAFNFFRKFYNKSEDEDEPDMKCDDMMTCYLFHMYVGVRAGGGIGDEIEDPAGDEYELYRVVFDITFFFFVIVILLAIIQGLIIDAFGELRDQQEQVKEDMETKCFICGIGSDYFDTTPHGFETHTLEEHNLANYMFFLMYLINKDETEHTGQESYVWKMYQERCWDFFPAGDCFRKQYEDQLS

T1 sequence (E9PZQ0 whole entry): as the sequence (E9PZQ0 whole entry W4792A) above, with A4792W counted along it

- Kd [1]: 0.69 µM
- Kd (RyR1 BSM1 mutant): ~7.1 µM
Compound: CCC(C)(C)C(=O)O[C@H]1C[C@@H](C)C=C2C=C[C@H](C)[C@H](CC[C@@H](O)C[C@@H](O)CC(=O)O)[C@H]21 [simvastatin acid]
